{"source": "patent US6627664B2", "about": "“Perylenequinones for use as sonosensitizers” (Altachem Pharma Ltd., priority 2001, dated 2003)", "test": "Pharmacokinetics / tissue uptake of 14C-HB in tumor-bearing mice", "assay_type": "in vivo, Balb/c mice", "from_the_text": "The excellent fluorescence properties of the hypocrellins and derivatives provide a valuable tool to monitor intracellular uptake and distribution kinetics by confocal laser scanning microscopy (CLSM). Each drug has unique properties of uptake and distribution (Miller et al 1995 a, b). The rate cells take up drug in humans […] can be determined using similar protocols as Liu et al 1995 and Miller et al., 1995 a or b). In vivo, the ideal time between i.v. injection or administration of the drug and light administration is preferably when tumor concentration of the photodynamic agent is optimal with respect to normal tissues, typically up to about 24 hours, but as long as 48 hours or more (Table 2).\nPharmacokinetics of ^14C-HB in Balb/c mice bearing the EMT6/Ed tumor in one flank. […] With respect to skin, the optimal therapeutic ratio for tumor occurs 2 hours following drug administration."}
{"substance": "^14C-Hypocrellin B", "values": [{"measurement": "clearance from blood", "setting": "Balb/c mice bearing EMT6/Ed tumor", "result": "rapid clearance"}, {"measurement": "Tissue Uptake of ^14C-Hypocrellin B", "setting": "Bone, 0 Hours", "result": "19,825 ± 2,300 dpm/g"}, {"measurement": "Tissue Uptake of ^14C-Hypocrellin B", "setting": "Bone, 2 Hours", "result": "3,955 ± 2,070 dpm/g"}, {"measurement": "Tissue Uptake of ^14C-Hypocrellin B", "setting": "Bone, 24 Hours", "result": "660 ± 215", "unit": "dpm/g"}, {"measurement": "Tissue Uptake of ^14C-Hypocrellin B", "setting": "Bone, 48 Hours", "result": "1,125 ± 310 dpm/g"}, {"measurement": "Tissue Uptake of ^14C-Hypocrellin B", "setting": "Brain, 0 Hours", "result": "17,560 ± 560 dpm/g"}, {"measurement": "Tissue Uptake of ^14C-Hypocrellin B", "setting": "Brain, 2 Hours", "result": "3,855 ± 170 dpm/g"}, {"measurement": "Tissue Uptake of ^14C-Hypocrellin B", "setting": "Brain, 24 Hours", "result": "2,840 ± 275 dpm/g"}, {"measurement": "Tissue Uptake of ^14C-Hypocrellin B", "setting": "Brain, 48 Hours", "result": "845 ± 90", "unit": "dpm/g"}, {"measurement": "Tissue Uptake of ^14C-Hypocrellin B", "setting": "Fat, 0 Hours", "result": "20,550 ± 715 dpm/g"}, {"measurement": "Tissue Uptake of ^14C-Hypocrellin B", "setting": "Fat, 2 Hours", "result": "38,570 ± 5,610 dpm/g"}, {"measurement": "Tissue Uptake of ^14C-Hypocrellin B", "setting": "Fat, 24 Hours", "result": "19,550 ± 2,210 dpm/g"}, {"measurement": "Tissue Uptake of ^14C-Hypocrellin B", "setting": "Fat, 48 Hours", "result": "19,335 ± 2,335 dpm/g"}, {"measurement": "Tissue Uptake of ^14C-Hypocrellin B", "setting": "Heart, 0 Hours", "result": "113,920 ± 3,365 dpm/g"}, {"measurement": "Tissue Uptake of ^14C-Hypocrellin B", "setting": "Heart, 2 Hours", "result": "5,135 ± 910 dpm/g"}, {"measurement": "Tissue Uptake of ^14C-Hypocrellin B", "setting": "Heart, 24 Hours", "result": "7,835 ± 1,810 dpm/g"}, {"measurement": "Tissue Uptake of ^14C-Hypocrellin B", "setting": "Heart, 48 Hours", "result": "2,325 ± 245 dpm/g"}, {"measurement": "Tissue Uptake of ^14C-Hypocrellin B", "setting": "Ileum, 0 Hours", "result": "45,400 ± 3,600 dpm/g"}, {"measurement": "Tissue Uptake of ^14C-Hypocrellin B", "setting": "Ileum, 2 Hours", "result": "20,280 ± 2,850 dpm/g"}, {"measurement": "Tissue Uptake of ^14C-Hypocrellin B", "setting": "Ileum, 24 Hours", "result": "5,800 ± 645 dpm/g"}, {"measurement": "Tissue Uptake of ^14C-Hypocrellin B", "setting": "Ileum, 48 Hours", "result": "2,840 ± 595 dpm/g"}, {"measurement": "Tissue Uptake of ^14C-Hypocrellin B", "setting": "Kidney, 0 Hours", "result": "67,344 ± 950 dpm/g"}, {"measurement": "Tissue Uptake of ^14C-Hypocrellin B", "setting": "Kidney, 2 Hours", "result": "20,855 ± 3,955 dpm/g"}, {"measurement": "Tissue Uptake of ^14C-Hypocrellin B", "setting": "Kidney, 24 Hours", "result": "12,050 ± 1,845 dpm/g"}, {"measurement": "Tissue Uptake of ^14C-Hypocrellin B", "setting": "Kidney, 48 Hours", "result": "4,535 ± 765 dpm/g"}, {"measurement": "Tissue Uptake of ^14C-Hypocrellin B", "setting": "Liver, 0 Hours", "result": "394,190 ± 7,540 dpm/g"}, {"measurement": "Tissue Uptake of ^14C-Hypocrellin B", "setting": "Liver, 2 Hours", "result": "24,620 ± 4,885 dpm/g"}, {"measurement": "Tissue Uptake of ^14C-Hypocrellin B", "setting": "Liver, 24 Hours", "result": "22,495 ± 4,440 dpm/g"}, {"measurement": "Tissue Uptake of ^14C-Hypocrellin B", "setting": "Liver, 48 Hours", "result": "9,215 ± 720 dpm/g"}, {"measurement": "Tissue Uptake of ^14C-Hypocrellin B", "setting": "Lung, 0 Hours", "result": "651,100 ± 42,668 dpm/g"}, {"measurement": "Tissue Uptake of ^14C-Hypocrellin B", "setting": "Lung, 2 Hours", "result": "8,580 ± 655 dpm/g"}, {"measurement": "Tissue Uptake of ^14C-Hypocrellin B", "setting": "Lung, 24 Hours", "result": "3870 ± 525", "unit": "dpm/g"}, {"measurement": "Tissue Uptake of ^14C-Hypocrellin B", "setting": "Lung, 48 Hours", "result": "2,975 ± 360 dpm/g"}, {"measurement": "Tissue Uptake of ^14C-Hypocrellin B", "setting": "Muscle, 0 Hours", "result": "13,665 ± 600 dpm/g"}, {"measurement": "Tissue Uptake of ^14C-Hypocrellin B", "setting": "Muscle, 2 Hours", "result": "4,050 ± 940 dpm/g"}, {"measurement": "Tissue Uptake of ^14C-Hypocrellin B", "setting": "Muscle, 24 Hours", "result": "2,875 ± 560 dpm/g"}, {"measurement": "Tissue Uptake of ^14C-Hypocrellin B", "setting": "Muscle, 48 Hours", "result": "1,015 ± 205 dpm/g"}, {"measurement": "Tissue Uptake of ^14C-Hypocrellin B", "setting": "Pancreas, 0 Hours", "result": "32,010 ± 2,165 dpm/g"}, {"measurement": "Tissue Uptake of ^14C-Hypocrellin B", "setting": "Pancreas, 2 Hours", "result": "13,185 ± 12,055 dpm/g"}, {"measurement": "Tissue Uptake of ^14C-Hypocrellin B", "setting": "Pancreas, 24 Hours", "result": "32,390 ± 11,840 dpm/g"}, {"measurement": "Tissue Uptake of ^14C-Hypocrellin B", "setting": "Pancreas, 48 Hours", "result": "16,915 ± 3,845 dpm/g"}, {"measurement": "Tissue Uptake of ^14C-Hypocrellin B", "setting": "Serum, 0 Hours", "result": "69,975 ± 1,925 dpm/g"}, {"measurement": "Tissue Uptake of ^14C-Hypocrellin B", "setting": "Serum, 2 Hours", "result": "1,655 ± 170 dpm/g"}, {"measurement": "Tissue Uptake of ^14C-Hypocrellin B", "setting": "Serum, 24 Hours", "result": "1,020 ± 160 dpm/g"}, {"measurement": "Tissue Uptake of ^14C-Hypocrellin B", "setting": "Serum, 48 Hours", "result": "700 ± 240", "unit": "dpm/g"}, {"measurement": "Tissue Uptake of ^14C-Hypocrellin B", "setting": "Skin, 0 Hours", "result": "14,970 ± 74 dpm/g"}, {"measurement": "Tissue Uptake of ^14C-Hypocrellin B", "setting": "Skin, 2 Hours", "result": "3,130 ± 221 dpm/g"}, {"measurement": "Tissue Uptake of ^14C-Hypocrellin B", "setting": "Skin, 24 Hours", "result": "2,700 ± 170 dpm/g"}, {"measurement": "Tissue Uptake of ^14C-Hypocrellin B", "setting": "Skin, 48 Hours", "result": "1,590 ± 250 dpm/g"}, {"measurement": "Tissue Uptake of ^14C-Hypocrellin B", "setting": "Spleen, 0 Hours", "result": "151,870 ± 9,395 dpm/g"}, {"measurement": "Tissue Uptake of ^14C-Hypocrellin B", "setting": "Spleen, 2 Hours", "result": "58,900 ± 4,205 dpm/g"}, {"measurement": "Tissue Uptake of ^14C-Hypocrellin B", "setting": "Spleen, 24 Hours", "result": "14,970 ± 3,215 dpm/g"}, {"measurement": "Tissue Uptake of ^14C-Hypocrellin B", "setting": "Spleen, 48 Hours", "result": "26,700 ± 11,105 dpm/g"}, {"measurement": "Tissue Uptake of ^14C-Hypocrellin B", "setting": "Stomach, 0 Hours", "result": "28,280 ± 145 dpm/g"}, {"measurement": "Tissue Uptake of ^14C-Hypocrellin B", "setting": "Stomach, 2 Hours", "result": "21,630 ± 3,345 dpm/g"}, {"measurement": "Tissue Uptake of ^14C-Hypocrellin B", "setting": "Stomach, 24 Hours", "result": "34,385 ± 8,795 dpm/g"}, {"measurement": "Tissue Uptake of ^14C-Hypocrellin B", "setting": "Stomach, 48 Hours", "result": "12,460 ± 975 dpm/g"}, {"measurement": "Tissue Uptake of ^14C-Hypocrellin B", "setting": "Tumor, 0 Hours", "result": "7,885 ± 270 dpm/g"}, {"measurement": "Tissue Uptake of ^14C-Hypocrellin B", "setting": "Tumor, 2 Hours", "result": "3,775 ± 400 dpm/g"}, {"measurement": "Tissue Uptake of ^14C-Hypocrellin B", "setting": "Tumor, 24 Hours", "result": "2,950 ± 80 dpm/g"}, {"measurement": "Tissue Uptake of ^14C-Hypocrellin B", "setting": "Tumor, 48 Hours", "result": "2,165 ± 470 dpm/g"}, {"measurement": "time of optimal therapeutic ratio for tumor with respect to skin", "setting": "following drug administration", "result": 2, "unit": "h"}]}
